Measured values from patent US12568972B2, “Pyridazinol compounds and derivatives, preparation methods, herbicidal compositions and applications thereof” (Qingdao Kingagroot Chemical Compound Co., Ltd., priority 2018, dated 2026).

Tests used:
Assay in all cases: Post-emergence test, weed control effect
Type in all cases: in vivo
Details in all cases: after 3 weeks
Chenopodiaceae = test system: Chenopodiaceae
Description: (§1) The activity level standard of harmful plant destruction (i.e. growth inhibition rate) is as follows: • Level 10: completely dead; • Level 9: above 90% growth inhibition rate; • Level 8: above 80% growth inhibition rate; • Level 7: above 70% growth inhibition rate; • Level 6: above 60% growth inhibition rate; • Level 5: above 50% growth inhibition rate; • Level 4: above 40% growth inhibition rate; • Level 3: above 30% growth inhibition rate; • Level 2: above 20% growth inhibition rate; • Level 1: below 20% growth inhibition rate; • Level 0: no effect.
(§2) The above described growth inhibition rates are fresh weight inhibition rates.
(§3) Experiment of post-emergence test: monocotyledonous and dicotyledonous weed seeds as well as main crop seeds (i.e., wheat, corn, rice, soybean, cotton, oilseed rape, millet and sorghum) were put into a plastic pot loaded with soil, then covered with 0.5-2 cm of soil, and the seeds were allowed to grow in good greenhouse environment. The test plants were treated at 2-3 leaf stage 2-3 weeks after sowing. The test compounds of the invention were dissolved in acetone respectively, then added with Tween-80 and diluted by a certain amount of water to give solutions with certain concentrations, and added with 80% vegetable oil methyl ester synergist at 1500 g/ha. The solution was sprayed to the plants with a sprayer. The plants were cultured for 3 weeks in the greenhouse.

Amaranthus retroflexus = test system: Amaranthus retroflexus
Description: as §1, §2, §3

Veronica polita = test system: Veronica polita
Description: as §1, §2, §3

Rorippa indica = test system: Rorippa indica
Description: as §1, §2, §3

Oc1cc(C(F)(F)F)nnc1-c1cc(F)cnc1F [Compound 986]
10: weed control effect (activity level), Chenopodiaceae (Chenopodiaceae; Dose 3000 g/ha) | weed control effect (activity level), Amaranthus retroflexus (Amaranthus retroflexus; Dose 3000 g/ha) | weed control effect (activity level), Veronica polita (Veronica polita; Dose 3000 g/ha) | weed control effect (activity level), Rorippa indica (Rorippa indica; Dose 3000 g/ha)

Oc1cc(C(F)(F)F)nnc1-c1cnccc1Cl [Compound 204]
10: weed control effect (activity level), Chenopodiaceae (Chenopodiaceae; dose 2000 g/ha) | weed control effect (activity level), Amaranthus retroflexus (Amaranthus retroflexus; dose 2000 g/ha) | weed control effect (activity level), Veronica polita (Veronica polita; dose 2000 g/ha) | weed control effect (activity level), Rorippa indica (Rorippa indica; dose 2000 g/ha)

Cn1ncc(C(F)F)c1-c1nnc(C(F)(F)F)cc1O [Compound 824]
10: weed control effect (activity level), Chenopodiaceae (Chenopodiaceae; Dose 3000 g/ha) | weed control effect (activity level), Amaranthus retroflexus (Amaranthus retroflexus; Dose 3000 g/ha) | weed control effect (activity level), Veronica polita (Veronica polita; Dose 3000 g/ha) | weed control effect (activity level), Rorippa indica (Rorippa indica; Dose 3000 g/ha)

Oc1cc(C(F)(F)F)nnc1-c1ccc2c(c1)OCO2 [Compound 771]
10: weed control effect (activity level), Chenopodiaceae (Chenopodiaceae; Dose 3000 g/ha) | weed control effect (activity level), Amaranthus retroflexus (Amaranthus retroflexus; Dose 3000 g/ha) | weed control effect (activity level), Veronica polita (Veronica polita; Dose 3000 g/ha) | weed control effect (activity level), Rorippa indica (Rorippa indica; Dose 3000 g/ha)

O=C(Oc1cc(C(F)(F)F)nnc1-c1ccc(F)cc1)c1ccno1 [Compound 1-109]
10: weed control effect, Chenopodiaceae (activity level) (Chenopodiaceae; Dose 3000 g/ha) | weed control effect, Amaranthus retroflexus (activity level) (Amaranthus retroflexus; Dose 3000 g/ha) | weed control effect, Veronica polita (activity level) (Veronica polita; Dose 3000 g/ha) | weed control effect, Rorippa indica (activity level) (Rorippa indica; Dose 3000 g/ha)

O=C(Oc1cc(C(F)(F)F)nnc1-c1ccc(F)cc1)c1ccc2ccccc2c1 [Compound 1-114]
10: weed control effect, Chenopodiaceae (activity level) (Chenopodiaceae; Dose 3000 g/ha) | weed control effect, Amaranthus retroflexus (activity level) (Amaranthus retroflexus; Dose 3000 g/ha) | weed control effect, Veronica polita (activity level) (Veronica polita; Dose 3000 g/ha) | weed control effect, Rorippa indica (activity level) (Rorippa indica; Dose 3000 g/ha)

Oc1cc(C(F)(F)F)nnc1-c1ccnn1-c1ccccc1 [Compound 832]
10: weed control effect (activity level), Chenopodiaceae (Chenopodiaceae; Dose 3000 g/ha) | weed control effect (activity level), Amaranthus retroflexus (Amaranthus retroflexus; Dose 3000 g/ha) | weed control effect (activity level), Veronica polita (Veronica polita; Dose 3000 g/ha) | weed control effect (activity level), Rorippa indica (Rorippa indica; Dose 3000 g/ha)

COc1ccc(F)cc1-c1nnc(C(F)(F)F)cc1O [Compound 60]
10: weed control effect (activity level), Chenopodiaceae (Chenopodiaceae; dose 1000 g/ha) | weed control effect (activity level), Amaranthus retroflexus (Amaranthus retroflexus; dose 1000 g/ha) | weed control effect (activity level), Veronica polita (Veronica polita; dose 1000 g/ha) | weed control effect (activity level), Rorippa indica (Rorippa indica; dose 1000 g/ha)

CCCCCCCC(=O)Oc1cc(C(F)(F)F)nnc1-c1ccc(F)c(F)c1 [Compound 1-14]
10: weed control effect, Chenopodiaceae (activity level) (Chenopodiaceae; Dose 3000 g/ha) | weed control effect, Amaranthus retroflexus (activity level) (Amaranthus retroflexus; Dose 3000 g/ha) | weed control effect, Veronica polita (activity level) (Veronica polita; Dose 3000 g/ha) | weed control effect, Rorippa indica (activity level) (Rorippa indica; Dose 3000 g/ha)

Cc1cc(-c2nnc(C(F)(F)F)cc2O)cnc1Cl [Compound 225]
10: weed control effect (activity level), Chenopodiaceae (Chenopodiaceae; dose 2000 g/ha) | weed control effect (activity level), Amaranthus retroflexus (Amaranthus retroflexus; dose 2000 g/ha) | weed control effect (activity level), Veronica polita (Veronica polita; dose 2000 g/ha) | weed control effect (activity level), Rorippa indica (Rorippa indica; dose 2000 g/ha)

Oc1cc(C(F)(F)F)nnc1-c1cncc(Br)c1 [Compound 967]
10: weed control effect (activity level), Chenopodiaceae (Chenopodiaceae; Dose 3000 g/ha) | weed control effect (activity level), Amaranthus retroflexus (Amaranthus retroflexus; Dose 3000 g/ha) | weed control effect (activity level), Veronica polita (Veronica polita; Dose 3000 g/ha) | weed control effect (activity level), Rorippa indica (Rorippa indica; Dose 3000 g/ha)

CCS(=O)Oc1cc(C(F)(F)F)nnc1-c1ccc(F)c(F)c1 (centres unmarked) [Compound 1-165]
10: weed control effect, Chenopodiaceae (activity level) (Chenopodiaceae; Dose 3000 g/ha) | weed control effect, Amaranthus retroflexus (activity level) (Amaranthus retroflexus; Dose 3000 g/ha) | weed control effect, Veronica polita (activity level) (Veronica polita; Dose 3000 g/ha) | weed control effect, Rorippa indica (activity level) (Rorippa indica; Dose 3000 g/ha)

Oc1cc(C(F)(F)F)nnc1-c1ccc2cccnc2c1 [Compound 723]
10: weed control effect (activity level), Chenopodiaceae (Chenopodiaceae; Dose 3000 g/ha) | weed control effect (activity level), Amaranthus retroflexus (Amaranthus retroflexus; Dose 3000 g/ha) | weed control effect (activity level), Veronica polita (Veronica polita; Dose 3000 g/ha) | weed control effect (activity level), Rorippa indica (Rorippa indica; Dose 3000 g/ha)

Oc1cc(C(F)(F)F)nnc1-c1ccnc(Cl)c1Cl [Compound 222]
10: weed control effect (activity level), Chenopodiaceae (Chenopodiaceae; dose 2000 g/ha) | weed control effect (activity level), Amaranthus retroflexus (Amaranthus retroflexus; dose 2000 g/ha) | weed control effect (activity level), Veronica polita (Veronica polita; dose 2000 g/ha) | weed control effect (activity level), Rorippa indica (Rorippa indica; dose 2000 g/ha)

CSc1cccc(-c2nnc(C(F)(F)F)cc2O)c1 [Compound 95]
10: weed control effect (activity level), Chenopodiaceae (Chenopodiaceae; dose 1000 g/ha) | weed control effect (activity level), Amaranthus retroflexus (Amaranthus retroflexus; dose 1000 g/ha) | weed control effect (activity level), Veronica polita (Veronica polita; dose 1000 g/ha) | weed control effect (activity level), Rorippa indica (Rorippa indica; dose 1000 g/ha)

CCOC(=O)CCCOc1cc(C(F)(F)F)nnc1-c1ccc(F)cc1 [Compound 1-207]
10: weed control effect, Chenopodiaceae (activity level) (Chenopodiaceae; Dose 3000 g/ha) | weed control effect, Amaranthus retroflexus (activity level) (Amaranthus retroflexus; Dose 3000 g/ha) | weed control effect, Veronica polita (activity level) (Veronica polita; Dose 3000 g/ha) | weed control effect, Rorippa indica (activity level) (Rorippa indica; Dose 3000 g/ha)

O=S(=O)(Oc1cc(C(F)(F)F)nnc1-c1ccc(F)c(F)c1)c1ccc2ncsc2c1 [Compound 1-147]
10: weed control effect, Chenopodiaceae (activity level) (Chenopodiaceae; Dose 3000 g/ha) | weed control effect, Amaranthus retroflexus (activity level) (Amaranthus retroflexus; Dose 3000 g/ha) | weed control effect, Veronica polita (activity level) (Veronica polita; Dose 3000 g/ha) | weed control effect, Rorippa indica (activity level) (Rorippa indica; Dose 3000 g/ha)
